Read-outs that look alike come from different tables or passages of the source. One block for each compound: values may come before it.
Tests used:
SOD1^G93A mice = assay: Biodistribution and targeting in ALS mouse model by NIR imaging; assay type: in vivo; details: 25 nmol retro-orbital, 4 h post-injection
Experimental: For biodistribution and targeting studies, 12-week-old B6SJLF1/J (SOD1^G93A)1Gur male mice (25 to 30 g) were purchased from the Charles River Laboratories (Wilmington, MA). Animals were housed in an AAALAC-certified facility [Massachusetts General Hospital (MGH) #D16-00361], and all animal studies were performed in accordance with the Public Health Service Policy on Humane Care of Laboratory Animals and approved by the MGH Institutional Animal Care and Use Committee (IACUC) (#N2016000136). […] Each mouse was set on the wire lid of a typical housing cage, which was then turned on its side. It was timed how long it took after the test started for the mouse to stand with at least 2 limbs on the lid. The longest latency was noted after the animals were given 3 chances to stand for a maximum of 3 min per trial. The hemizygous SOD1^G93A mice were selected via genotyping polymerase chain reaction (PCR) assay. Mice were fed chlorophyll-free mouse chow (VWR International. Radnor, PA) at least 5 d prior to imaging to minimize autofluorescence. […]
For all real-time intraoperative imaging, a standardized imaging protocol was employed throughout the procedure using our custom-made imaging system, as previously described. […] The signal-to-background ratio (SBR) was calculated as follows: SBR=IROI/IAuto (2) where IROI denotes the average intensity of an ROI and IAuto represents the intensity of the muscle.

[1] = test system: SH-SY5Y cells and fibroblast NIH3T3 cells; assay: Cytotoxicity, Cell Counting Kit-8 (CCK-8); assay type: cell-based; details: Homo sapiens, 0 to 20 μM, 24 h, read-out: IC50 (cell viability)
Experimental: Cell viability was assessed using Cell Counting Kit-8 (CCK-8) from Dojindo Molecular Technologies Inc. (Kumamoto, Japan). Briefly, SH-SY5Y and NIH3T3 cells were seeded into 96-well plates at a density of 2,500 cells per well. The cells were then treated with 0 to 20 μM of each fluorophore in growth medium for 24 h, and 10% CCK-8 solutions were added to each well. The plates were incubated at 37 °C for 4 h, and absorbance was measured at 450 nm using a SpectraMax M5 plate reader (Molecular Devices). Cell viability (%) = (Asample − Ab)/(Ac − Ab) × 100, where Asample, Ab, and Ac denote the absorbance reading of sample, blanks, and negative control wells, respectively.

[2] = Photostability under continuous 760-nm irradiation in 5% BSA; assay type: physicochemical; details: 5% BSA solution, NIR imaging conditions
Experimental: To investigate the photostability of ALS04 and ALS05, 10 mM stock solutions were diluted to obtain working solutions, with concentrations of 100, 50, 20, and 10 μM in 5% BSA solution, which were then dispensed into a black 96-well plate. Subsequently, the 200-μl working solutions were exposed to continuous irradiation using a 760-nm laser diode at 4 mW/cm^2, with white light (400 to 650 nm) at 40,000 lux, and imaged for 240 min. The fluorescence (%) was calculated by analyzing the measured values with ImageJ v1.52 (National Institutes of Health, Bethesda, MD, USA) using images captured at each time point. The data, presented as mean ± SD, assessed stability by measuring regions of interest (ROIs) and comparing fluorescence intensity against the initial fluorescence signal.

[3] = Solubility in 5% BSA in saline; assay type: physicochemical; details: 5% bovine serum albumin in saline, plasma or biological fluid, thermodynamic from solid
Experimental: MarvinSketch (ver. 23.11) and InstantJChem (ver. 23.17) calculator plug-ins (ChemAxon, Budapest, Hungary) were used to calculate in silico physicochemical property, such as molecular weight (MW), the partition and distribution coefficient (LogP and LogD at pH 7.4), surface molecular charge, hydrophobicity, the hydrogen bond acceptors/donors (HBA/HBD), the acid dissociation constant (pKa), the topological polar surface area (TPSA), and BBB score. The BBB score is determined by 5 key physicochemical descriptors, including the number of aromatic rings, the number of heavy atoms, MWHBN (a parameter derived from MW and the number of HBA/HBD), TPSA, and pKa. […] The absorbance and fluorescence emission spectra of ALS04 and ALS05 at varying concentrations were measured in dimethyl sulfoxide (DMSO) using HR2000 absorbance spectrometers (200 to 1,100 nm) and USB2000FL fluorescence spectrometers (350 to 1,000 nm) from Ocean Optics (Dunedin, FL). Fluorescence emission spectra were collected under NIR excitation using a 760-nm laser pointer (Opcom Inc., Xiamen, China). […] The fluorescence emission spectrum was integrated and plotted as a function of absorbance at 755 nm, and a linear fit was applied to determine the slope between fluorescence intensity and absorbance. […] Following this, the solution was centrifuged at 1,500g for 10 min, and the absorbance of the supernatant was measured. […]

SH-SY5Y cells [4] = assay: Cellular uptake inhibition (BSP pretreatment or 4 °C); assay type: cell-based, human
Experimental: SH-SY5Y cells were seeded on a 24-well plate (Corning Costar, no. 3524) and incubated at 37 °C for 48 h. To determine the role of membrane transporter in ALS04 retention, SH-SY5Y cells were pretreated with 250 μM sulfobromophthalein disodium (BSP; MedChemExpress, HY-D0217) at 37 °C for 20 min. Cells were then incubated with 1 μM of ALS04 and NucBlue (Invitrogen, Hoechst 33342, no. R37605) for 20 min at 37 °C. To evaluate the contribution of diffusion across the plasma membrane, cells were also incubated at 4 °C for 30 min, followed by incubation with 1 μM ALS04 at 4 °C for 20 min. After washing, the cells were imaged using BioTek Cytation 5. The fluorescence intensity of each cell was determined using ImageJ.

[5] = Pharmacokinetics after single intravenous injection (2-compartment model); assay type: in vivo, CD-1 mice; details: 25 nmol i.v. in 2.5% PEG400 and 5% BSA in saline; for half-life: 25 nmol
Experimental: (§1) Six-week-old CD-1 mice were used to quantify the blood clearance rate and urinary excretion. Mice were injected with 25 nmol of ALS04 or ALS05 in saline containing 2.5% PEG400 (polyethylene glycol, molecular weight 400) and 5% BSA via intravenous injection under isoflurane anesthesia, and blood was collected in heparinized capillary tubes (Fisher Scientific, Pittsburgh, PA) by tail nick before injection and at 1, 3, 5, 10, 30, 60, 120, 180, and 240 min post-injection and then stored in an icebox to prevent clotting. The supernatants of collected blood were filled into capillary microtubes (Fisher Scientific) after centrifugation. Mice were euthanized with CO2 inhalation to image organs and collect urine from the bladder 4 h post-injection. Collected urine samples were also placed into capillary microtubes. The fluorescence intensities of the microtubes were measured by NIR imaging along with a set of standard ALS04 or ALS05 samples of known concentrations to analyze the pharmacokinetics. Pharmacokinetic analysis was performed using the 2-compartment model (or biexponential decay) to estimate distribution (t1/2α) and elimination (t1/2β) blood half-life, the volume of distribution, and clearance. Results were presented as a biexponential decay curve.

[6] = Optical properties (absorbance, fluorescence, quantum yield) in DMSO; assay type: physicochemical
Experimental: MarvinSketch (ver. 23.11) and InstantJChem (ver. 23.17) calculator plug-ins (ChemAxon, Budapest, Hungary) were used to calculate in silico physicochemical property, such as molecular weight (MW), the partition and distribution coefficient (LogP and LogD at pH 7.4), surface molecular charge, hydrophobicity, the hydrogen bond acceptors/donors (HBA/HBD), the acid dissociation constant (pKa), the topological polar surface area (TPSA), and BBB score. The BBB score is determined by 5 key physicochemical descriptors, including the number of aromatic rings, the number of heavy atoms, MWHBN (a parameter derived from MW and the number of HBA/HBD), TPSA, and pKa. The final score is computed using stepwise methods for descriptors with discrete values and polynomial weight functions for descriptors with continuous ranges (ChemAxon). The absorbance and fluorescence emission spectra of ALS04 and ALS05 at varying concentrations were measured in dimethyl sulfoxide (DMSO) using HR2000 absorbance spectrometers (200 to 1,100 nm) and USB2000FL fluorescence spectrometers (350 to 1,000 nm) from Ocean Optics (Dunedin, FL). Fluorescence emission spectra were collected under NIR excitation using a 760-nm laser pointer (Opcom Inc., Xiamen, China). […] The fluorescence emission spectrum was integrated and plotted as a function of absorbance at 755 nm, and a linear fit was applied to determine the slope between fluorescence intensity and absorbance. […] A small, accurately weighed amount of each fluorophore was added to a minimal volume of solvents, and the saturated solution was then vortexed and sonicated for 5 min to ensure complete dissolution of the solids. Following this, the solution was centrifuged at 1,500g for 10 min, and the absorbance of the supernatant was measured. The solubility (g/l) was calculated by multiplying the maximum absorbance-derived concentration by the MW of each fluorophore.

CD-1 mice = assay: Biodistribution and clearance by NIR imaging; assay type: in vivo; details: 4 h post-injection
Experimental: as §1
For all real-time intraoperative imaging, a standardized imaging protocol was employed throughout the procedure using our custom-made imaging system, as previously described. Briefly, imaging utilized a 760-nm excitation source at a fluence rate of 4 mW/cm^2 combined with white light illumination (400 to 650 nm) at 40,000 lux. Camera exposure time was adjusted as needed to accurately capture the biodistribution of the fluorophores. Mice were maintained under general anesthesia using isoflurane or a combination of ketamine and xylazine (Webster Veterinary, Fort Devens, MA), and a midline incision was performed to expose the abdominal cavity. For imaging, a general field of view (FOV) of 5 cm in diameter was used to include the pancreas head, duodenum, liver, and kidneys, while a close-up FOV of 3.3 cm in diameter focused specifically on the pancreas head and duodenum. Following imaging, the mice were euthanized using CO₂ inhalation. Major organs, including the heart, lung, liver, pancreas, spleen, kidney, duodenum, intestine, and muscle, were excised and imaged ex vivo to evaluate fluorophore biodistribution and excretion pathways. The signal-to-background ratio (SBR) was calculated as follows: SBR=IROI/IAuto (2) where IROI denotes the average intensity of an ROI and IAuto represents the intensity of the muscle.

SH-SY5Y cells [7] = assay: In vitro model of mitochondrial dysfunction (MPP+); assay type: cell-based, human; details: MPP+ 30, 125, 500 μM for 24 h, then 1 μM for 30 min
Experimental: SH-SY5Y cells were seeded into 6-well plates (Corning Costar, no. 3516) at a density of 12,000 cells/well overnight. Cells were maintained at 37 °C in a humidified atmosphere of 5% CO2. To model mitochondrial dysfunction, undifferentiated and differentiated SH-SY5Y cells were incubated with 30, 125, and 500 μM 1-methyl-4-phenylpyridinium (MPP^+; Neurotoxin agent, Cayman, no. 16958) in the medium for 24 h. The control groups for undifferentiated and differentiated SH-SY5Y cells were treated with the same medium without MPP^+. The cells were then washed with 10% FBS/HBSS. After washing, cells were incubated with 1 μM of ALS04, MitoTracker Deep Red, and NucBlue for 30 min. The cells were imaged using BioTek Cytation 5. The fluorescent intensity of each cell was measured using ImageJ.

SH-SY5Y cells [8] = assay: Subcellular localization (colocalization with LysoTracker/MitoTracker); assay type: cell-based, human; details: 1 μM, 30 min, 37 °C
Experimental: Human neuroblastoma SH-SY5Y cells [American Type Culture Collection (ATCC), Manassas, VA, USA] were cultured in a 1:1 mixture of Eagle’s minimum essential medium (EMEM; no. 30-2003, ATCC, Manassas, VA, USA) and F12K with 10% FBS and 1% penicillin-streptomycin solution. Cells were grown in a humidified atmosphere of 5% CO2 at 37 °C. The medium was replaced every 3 to 4 d, and cells were subcultured using trypsin–EDTA when 70% to 80% confluent. All media and supplements were purchased from Gibco (Gaithersburg, MD, USA). To optimize the imaging condition in this study, cells were incubated at 37 °C for 10 to 30 min in the presence of 0.1 to 1 μM of ALS04 and ALS05. After washing, the cells were imaged using BioTek Cytation 5. Fluorescence intensity was quantified using the threshold analysis method implemented in the ImageJ software. […] The cells were then washed and stained with NucBlue (2 drops/ml, Live ReadyProbes Reagent, Hoechst 33342, Invitrogen no. R37605), Lysotracker Yellow (5 μM, Invitrogen, no. L12491), and MitoTracker Deep Red (0.5 μM) (Invitrogen, no. M22426) to stain lysosome and mitochondria for 30 min as per the manufacturer’s instruction. […] Mander’s colocalization coefficients were then determined using the Costes method to choose threshold values on ImageJ [24].

[9] = in DMSO, cited from earlier work

Photostability (retained fluorescence) at 10 μM ([2]; 10 μM, 240 min): 60%
Photostability (retained fluorescence) ([2]; up to 240 min): over 90%
solubility at 5 min [3]: 2530 µg/mL
AUC [5]: 775.6 nmol·min/mL
half-life ([5]; CD-1, mouse, plasma, iv, read-out: t1/2α (distribution blood half-life)): 1.82 min
half-life ([5]; CD-1, mouse, plasma, iv, read-out: t1/2β (elimination blood half-life)): 79.9 min
clearance ([5]; CD-1, mouse, plasma, iv, read-out: Cl (clearance)): 0.067 mL/min
Vd ([5]; CD-1, mouse, plasma, iv, read-out: Vd (volume of distribution)): 0.00296 L
Ext. coeff. (molar absorptivity) [6]: 169,600 M^-1cm^-1
Max. Abs (excitation maximum) [6]: 751 nm
Max. Fl (emission maximum) [6]: 774 nm
QY (quantum yield) ([6]; ICG as reference): 6.0%
SBR in duodenum or intestine and kidneys (CD-1 mice; 25 nmol): relatively high SBR
Signal in the bladder (CD-1 mice; 25 nmol): Little signal
Clearance route (CD-1 mice; 25 nmol, intravital NIR imaging): both renal and hepatic clearance
Signals in brown adipose tissue (BAT) and pituitary gland (PG) compared to ALS05 (CD-1 mice; 25 nmol, ****P ≤ 0.0001 BAT, *P = 0.0324 PG): highly selective accumulated signals
Ex vivo signal in the gastrointestinal tract (CD-1 mice; resected organs): high signal
Ex vivo signal in the kidney compared to ALS05 (CD-1 mice; resected organs): noticeably higher signal
SMILES: CN1/C(=C/C2=CC3=C/C(=C/c4sc5ccccc5[n+]4C)CCC3CC2)Sc2ccccc21 (stereo not shown) [ALS04]
Uptake in BAT of SOD1^G93A mice compared to sham mice (SOD1^G93A mice; 3-month-old asymptomatic mice, ****P ≤ 0.0001): significantly reduced
Signals in ventral temporal (VT) lobe and third ventricle (3v) of ALS mice compared to sham mice (SOD1^G93A mice; **P ≤ 0.01): significantly higher
IC50 [1]: ~1300 nM
Fluorescence signal (cellular uptake) after OATP inhibitor BSP (SH-SY5Y cells [4]; 250 μM BSP pretreatment 20 min, then 1 μM for 20 min, ****P ≤ 0.0001): significant reduction
Cellular uptake at 4 °C (SH-SY5Y cells [4]; cells at 4 °C 30 min, then 1 μM at 4 °C for 20 min): significantly reduced
Colocalization with mitochondria after MPP+ treatment (SH-SY5Y cells [7]): dose-dependent reduction
Colocalization with lysosomes (colocalizing pixels) (SH-SY5Y cells [8]; LysoTracker): 8.5%
Colocalization with mitochondria (colocalizing pixels) (SH-SY5Y cells [8]; MitoTracker): 71%

SMILES: CC1(C)C(/C=C/C=C/C=C/C=C2\N(CCCCS(=O)(=O)O)c3ccc4ccccc4c3C2(C)C)=[N+](CCCCS(=O)(=O)[O-])c2ccc3ccccc3c21 [ICG, indocyanine green]
QY (quantum yield) ([9]; reference standard): 13%
Molar absorptivity [9]: 232,000 M^−1 cm^−1
